{
  "source": "paper PMC6429214",
  "about": "“Design, Synthesis and Biological Evaluation of Isoxazole-Based CK1 Inhibitors Modified with Chiral Pyrrolidine Scaffolds” (Molecules, 2019)",
  "experiment_in_all_cases": "33PanQinase panel",
  "assay_type_in_all_cases": "biochemical",
  "key": {"B-RAF": {"target": "T1, B-RAF (Homo sapiens, UniProt P15056)", "T1 construct": "purchased ProQinase", "conditions": "read-out: Residual Activity (%)", "method_in_brief": "(§1)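 Radiometric 33PanQinase activity assay, compound tested once at 1 µM, 1% DMSO final. Readout: % residual activity vs DMSO control.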"}, "EPHA7": {"target": "T2, EPHA7 (Homo sapiens, UniProt Q15375)", "T2 construct": "purchased ProQinase", "conditions": "EPHA7, 1 µM; read-out: Residual Activity (%)", "method_in_brief": "as §1"}, "SIK3": {"target": "T3, SIK3 (Homo sapiens, UniProt Q9Y2K2)", "T3 construct": "purchased ProQinase", "T3 sequence (Q9Y2K2 whole entry)": "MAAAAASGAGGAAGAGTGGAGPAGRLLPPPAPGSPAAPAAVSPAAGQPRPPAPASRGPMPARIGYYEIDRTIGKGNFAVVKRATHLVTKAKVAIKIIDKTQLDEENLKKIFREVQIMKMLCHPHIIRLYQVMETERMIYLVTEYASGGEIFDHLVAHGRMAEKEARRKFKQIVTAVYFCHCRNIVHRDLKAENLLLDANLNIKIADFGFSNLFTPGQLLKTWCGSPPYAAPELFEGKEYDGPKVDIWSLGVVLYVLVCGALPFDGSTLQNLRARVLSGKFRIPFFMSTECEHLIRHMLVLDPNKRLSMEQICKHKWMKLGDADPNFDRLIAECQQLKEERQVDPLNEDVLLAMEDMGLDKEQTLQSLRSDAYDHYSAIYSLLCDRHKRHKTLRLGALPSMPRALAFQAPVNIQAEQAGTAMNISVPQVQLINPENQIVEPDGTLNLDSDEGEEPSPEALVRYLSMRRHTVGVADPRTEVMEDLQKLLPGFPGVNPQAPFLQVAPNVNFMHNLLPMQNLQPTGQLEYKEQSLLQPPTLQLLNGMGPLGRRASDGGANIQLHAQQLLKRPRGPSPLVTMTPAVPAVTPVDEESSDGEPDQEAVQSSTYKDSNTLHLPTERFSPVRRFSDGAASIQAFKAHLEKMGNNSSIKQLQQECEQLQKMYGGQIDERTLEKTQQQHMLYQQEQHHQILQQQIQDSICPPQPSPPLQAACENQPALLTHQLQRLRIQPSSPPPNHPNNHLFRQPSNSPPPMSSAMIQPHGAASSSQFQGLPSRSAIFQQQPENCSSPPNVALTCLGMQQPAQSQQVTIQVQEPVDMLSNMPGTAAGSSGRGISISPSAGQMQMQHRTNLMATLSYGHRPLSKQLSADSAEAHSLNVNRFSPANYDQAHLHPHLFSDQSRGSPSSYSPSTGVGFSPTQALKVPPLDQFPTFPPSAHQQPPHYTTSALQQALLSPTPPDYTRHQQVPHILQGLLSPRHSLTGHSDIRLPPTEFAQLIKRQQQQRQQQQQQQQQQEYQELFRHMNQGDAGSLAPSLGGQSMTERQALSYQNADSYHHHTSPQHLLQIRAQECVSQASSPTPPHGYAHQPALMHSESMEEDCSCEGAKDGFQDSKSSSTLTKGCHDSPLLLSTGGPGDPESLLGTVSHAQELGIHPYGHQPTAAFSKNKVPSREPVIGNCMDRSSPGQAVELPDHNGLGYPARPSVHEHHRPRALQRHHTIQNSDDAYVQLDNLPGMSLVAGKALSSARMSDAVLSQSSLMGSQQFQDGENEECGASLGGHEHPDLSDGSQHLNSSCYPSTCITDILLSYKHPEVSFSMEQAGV", "conditions": "SIK3, 1 µM; read-out: Residual Activity (%)", "method_in_brief": "as §1"}, "PKC-epsilon": {"target": "T4, PKC-epsilon (Homo sapiens, UniProt Q02156)", "T4 construct": "purchased ProQinase", "conditions": "read-out: Residual Activity (%)", "method_in_brief": "as §1"}, "DAPK2": {"target": "T5, DAPK2 (Homo sapiens, UniProt Q9UIK4)", "T5 construct": "purchased ProQinase", "conditions": "DAPK2, 1 µM; read-out: Residual Activity (%)", "method_in_brief": "as §1"}, "S6K": {"target": "T6, S6K (Homo sapiens, UniProt P23443)", "T6 construct": "purchased ProQinase", "conditions": "read-out: Residual Activity (%)", "method_in_brief": "as §1"}, "STK17A": {"target": "T7, STK17A (Homo sapiens, UniProt Q9UEE5)", "T7 construct": "purchased ProQinase", "T7 sequence (Q9UEE5 whole entry)": "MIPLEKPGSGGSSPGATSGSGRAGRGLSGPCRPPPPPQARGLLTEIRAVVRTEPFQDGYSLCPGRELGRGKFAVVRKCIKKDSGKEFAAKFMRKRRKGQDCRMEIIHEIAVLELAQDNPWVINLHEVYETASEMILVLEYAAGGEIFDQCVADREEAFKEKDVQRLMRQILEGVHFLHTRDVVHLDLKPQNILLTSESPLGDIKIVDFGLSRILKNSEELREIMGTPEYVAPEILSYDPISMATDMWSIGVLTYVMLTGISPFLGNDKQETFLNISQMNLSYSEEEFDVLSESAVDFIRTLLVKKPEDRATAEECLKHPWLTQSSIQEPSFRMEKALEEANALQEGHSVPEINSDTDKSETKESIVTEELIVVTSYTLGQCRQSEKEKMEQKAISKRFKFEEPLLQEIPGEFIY", "conditions": "read-out: Residual Activity (%)", "method_in_brief": "as §1"}, "TSK2": {"target": "T8, TSK2 (Homo sapiens, UniProt Q96PF2)", "T8 construct": "purchased ProQinase", "conditions": "TSK2, 1 µM; read-out: Residual Activity (%)", "method_in_brief": "as §1"}, "MUSK": {"target": "T9, MUSK (Homo sapiens, UniProt O15146)", "T9 construct": "purchased ProQinase", "conditions": "read-out: Residual Activity (%)", "method_in_brief": "as §1"}, "FGR": {"target": "T10, FGR (Homo sapiens, UniProt P09769)", "T10 construct": "purchased ProQinase", "T10 sequence (P09769 whole entry)": "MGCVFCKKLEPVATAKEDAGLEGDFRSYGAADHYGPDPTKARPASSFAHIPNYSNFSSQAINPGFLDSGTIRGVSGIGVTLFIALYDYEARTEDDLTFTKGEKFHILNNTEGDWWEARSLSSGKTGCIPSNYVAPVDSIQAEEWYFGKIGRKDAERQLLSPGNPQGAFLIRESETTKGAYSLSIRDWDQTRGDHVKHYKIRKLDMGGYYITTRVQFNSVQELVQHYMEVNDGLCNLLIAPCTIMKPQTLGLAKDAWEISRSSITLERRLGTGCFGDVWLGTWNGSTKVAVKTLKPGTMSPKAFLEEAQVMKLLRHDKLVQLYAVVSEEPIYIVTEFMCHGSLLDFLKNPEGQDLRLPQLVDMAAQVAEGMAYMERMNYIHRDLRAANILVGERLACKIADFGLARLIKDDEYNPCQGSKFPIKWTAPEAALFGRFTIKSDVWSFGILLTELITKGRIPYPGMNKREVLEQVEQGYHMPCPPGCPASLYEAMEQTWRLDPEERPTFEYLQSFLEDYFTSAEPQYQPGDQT", "conditions": "read-out: Residual Activity (%)", "method_in_brief": "as §1"}, "RIPK2": {"target": "T11, RIPK2 (Homo sapiens, UniProt O43353)", "T11 construct": "purchased ProQinase", "conditions": "RIPK2, 1 µM; read-out: Residual Activity (%)", "method_in_brief": "as §1"}, "EPHA5": {"target": "T12, EPHA5 (Homo sapiens, UniProt P54756)", "T12 construct": "purchased ProQinase", "conditions": "EPHA5, 1 µM; read-out: Residual Activity (%)", "method_in_brief": "as §1"}, "IKK-epsilon": {"target": "T13, IKK-epsilon (Homo sapiens, UniProt Q14164)", "T13 construct": "purchased ProQinase", "conditions": "read-out: Residual Activity (%)", "method_in_brief": "as §1"}, "FES": {"target": "T14, FES (Homo sapiens, UniProt P07332)", "T14 construct": "purchased ProQinase", "conditions": "read-out: Residual Activity (%)", "method_in_brief": "as §1"}, "FRK": {"target": "T15, FRK (Homo sapiens, UniProt P42685)", "T15 construct": "purchased ProQinase", "T15 sequence (P42685 whole entry)": "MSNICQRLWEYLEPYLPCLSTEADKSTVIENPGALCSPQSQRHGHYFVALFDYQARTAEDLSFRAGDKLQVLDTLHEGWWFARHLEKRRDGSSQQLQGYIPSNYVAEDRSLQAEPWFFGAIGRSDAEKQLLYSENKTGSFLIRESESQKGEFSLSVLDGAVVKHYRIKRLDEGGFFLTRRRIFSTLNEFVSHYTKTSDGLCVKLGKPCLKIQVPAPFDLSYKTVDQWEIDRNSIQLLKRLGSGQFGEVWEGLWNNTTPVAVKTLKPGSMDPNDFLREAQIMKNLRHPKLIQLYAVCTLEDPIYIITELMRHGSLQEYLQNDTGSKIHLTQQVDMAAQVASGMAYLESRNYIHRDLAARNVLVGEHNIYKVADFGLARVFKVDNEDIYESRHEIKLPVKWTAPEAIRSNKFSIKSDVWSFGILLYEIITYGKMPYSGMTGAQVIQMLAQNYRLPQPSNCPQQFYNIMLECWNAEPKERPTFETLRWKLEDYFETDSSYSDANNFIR", "conditions": "read-out: Residual Activity (%)", "method_in_brief": "as §1"}, "BTK": {"target": "T16, BTK (Homo sapiens, UniProt Q06187)", "T16 construct": "purchased ProQinase", "T16 sequence (Q06187 whole entry)": "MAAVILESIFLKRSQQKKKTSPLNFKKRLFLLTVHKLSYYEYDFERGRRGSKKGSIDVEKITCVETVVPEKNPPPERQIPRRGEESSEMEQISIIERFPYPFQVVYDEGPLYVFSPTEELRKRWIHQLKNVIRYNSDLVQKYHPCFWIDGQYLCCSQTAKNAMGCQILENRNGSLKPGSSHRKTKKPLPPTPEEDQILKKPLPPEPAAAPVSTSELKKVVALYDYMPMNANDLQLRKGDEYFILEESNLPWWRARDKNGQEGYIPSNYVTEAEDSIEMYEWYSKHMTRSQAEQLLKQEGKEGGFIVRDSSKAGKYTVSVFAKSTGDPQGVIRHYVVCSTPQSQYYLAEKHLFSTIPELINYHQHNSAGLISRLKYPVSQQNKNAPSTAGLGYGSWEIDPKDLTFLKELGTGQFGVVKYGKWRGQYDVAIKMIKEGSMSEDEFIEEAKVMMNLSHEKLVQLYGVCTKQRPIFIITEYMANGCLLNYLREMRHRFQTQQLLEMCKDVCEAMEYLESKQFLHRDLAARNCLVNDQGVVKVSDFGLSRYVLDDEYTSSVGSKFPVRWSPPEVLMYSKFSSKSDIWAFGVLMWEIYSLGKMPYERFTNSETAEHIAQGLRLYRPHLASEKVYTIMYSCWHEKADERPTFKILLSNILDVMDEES", "conditions": "read-out: Residual Activity (%)", "method_in_brief": "as §1"}, "GSK3-alpha": {"target": "T17, GSK3-alpha (Homo sapiens, UniProt P49840)", "T17 construct": "purchased ProQinase", "T17 sequence (P49840 whole entry)": "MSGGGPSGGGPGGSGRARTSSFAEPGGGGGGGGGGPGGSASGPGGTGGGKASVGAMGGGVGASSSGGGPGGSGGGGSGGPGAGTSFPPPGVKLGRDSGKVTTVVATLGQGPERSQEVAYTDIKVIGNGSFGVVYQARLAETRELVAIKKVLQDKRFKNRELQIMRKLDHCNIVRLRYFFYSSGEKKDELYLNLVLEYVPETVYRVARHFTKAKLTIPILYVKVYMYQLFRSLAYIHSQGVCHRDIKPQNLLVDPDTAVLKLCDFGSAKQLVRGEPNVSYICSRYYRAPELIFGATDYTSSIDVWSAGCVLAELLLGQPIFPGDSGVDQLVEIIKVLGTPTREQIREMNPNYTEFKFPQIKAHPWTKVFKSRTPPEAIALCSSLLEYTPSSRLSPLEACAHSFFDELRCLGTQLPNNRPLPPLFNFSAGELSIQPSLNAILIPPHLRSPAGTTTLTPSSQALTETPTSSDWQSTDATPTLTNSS", "conditions": "read-out: Residual Activity (%)", "method_in_brief": "as §1"}, "SIK1": {"target": "T18, SIK1 (Homo sapiens, UniProt P57059)", "T18 construct": "purchased ProQinase", "conditions": "SIK1, 1 µM; read-out: Residual Activity (%)", "method_in_brief": "as §1"}, "ERK1": {"target": "T19, ERK1 (Homo sapiens, UniProt P27361)", "T19 construct": "purchased ProQinase", "T19 sequence (P27361 whole entry)": "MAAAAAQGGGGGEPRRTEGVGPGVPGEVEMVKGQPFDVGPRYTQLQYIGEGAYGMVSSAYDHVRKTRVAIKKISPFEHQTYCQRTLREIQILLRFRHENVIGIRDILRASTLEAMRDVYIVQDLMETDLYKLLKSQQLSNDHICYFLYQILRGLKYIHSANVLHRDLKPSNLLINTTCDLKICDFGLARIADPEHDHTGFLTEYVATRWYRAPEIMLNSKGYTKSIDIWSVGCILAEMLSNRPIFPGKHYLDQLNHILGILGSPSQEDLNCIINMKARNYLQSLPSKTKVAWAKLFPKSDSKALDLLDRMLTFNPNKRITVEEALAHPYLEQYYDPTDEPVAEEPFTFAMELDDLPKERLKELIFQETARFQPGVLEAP", "conditions": "ERK1, 1 µM; read-out: Residual Activity (%)", "method_in_brief": "as §1"}, "PLK1": {"target": "T20, PLK1 (Homo sapiens, UniProt P53350)", "T20 construct": "purchased ProQinase", "T20 sequence (P53350 whole entry)": "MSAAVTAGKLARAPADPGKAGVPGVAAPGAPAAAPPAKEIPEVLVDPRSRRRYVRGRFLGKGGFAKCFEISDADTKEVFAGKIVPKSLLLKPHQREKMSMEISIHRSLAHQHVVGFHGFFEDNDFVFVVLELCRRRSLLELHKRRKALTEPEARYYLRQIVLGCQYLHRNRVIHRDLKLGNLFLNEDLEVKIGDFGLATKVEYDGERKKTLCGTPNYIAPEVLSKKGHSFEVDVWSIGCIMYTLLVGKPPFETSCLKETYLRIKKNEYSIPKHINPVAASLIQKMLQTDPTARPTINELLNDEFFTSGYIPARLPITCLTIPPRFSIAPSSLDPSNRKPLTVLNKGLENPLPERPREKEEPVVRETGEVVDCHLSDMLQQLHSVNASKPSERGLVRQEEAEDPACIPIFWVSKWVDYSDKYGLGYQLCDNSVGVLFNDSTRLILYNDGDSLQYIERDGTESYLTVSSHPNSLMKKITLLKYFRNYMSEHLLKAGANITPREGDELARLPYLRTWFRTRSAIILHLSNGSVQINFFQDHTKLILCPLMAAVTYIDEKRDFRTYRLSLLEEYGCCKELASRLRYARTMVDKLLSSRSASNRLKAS", "conditions": "PLK1, 1 µM; read-out: Residual Activity (%)", "method_in_brief": "as §1"}, "MAPKAPK3": {"target": "T21, MAPKAPK3 (Homo sapiens, UniProt Q16644)", "T21 construct": "purchased ProQinase", "conditions": "MAPKAPK3, 1 µM; read-out: Residual Activity (%)", "method_in_brief": "as §1"}, "IKK-beta": {"target": "T22, IKK-beta (Homo sapiens, UniProt O14920)", "T22 construct": "purchased ProQinase", "conditions": "read-out: Residual Activity (%)", "method_in_brief": "as §1"}, "PAK6": {"target": "T23, PAK6 (Homo sapiens, UniProt Q9NQU5)", "T23 construct": "purchased ProQinase", "conditions": "PAK6, 1 µM; read-out: Residual Activity (%)", "method_in_brief": "as §1"}, "HCK": {"target": "T24, HCK (Homo sapiens, UniProt P08631)", "T24 construct": "purchased ProQinase", "conditions": "read-out: Residual Activity (%)", "method_in_brief": "as §1"}, "BRSK2": {"target": "T25, BRSK2 (Homo sapiens, UniProt Q8IWQ3)", "T25 construct": "purchased ProQinase", "conditions": "BRSK2, 1 µM; read-out: Residual Activity (%)", "method_in_brief": "as §1"}, "CK1-epsilon": {"target": "T26, CK1-epsilon (Homo sapiens, UniProt P49674)", "T26 construct": "purchased ProQinase", "conditions": "read-out: Residual Activity (%)", "method_in_brief": "as §1"}, "SRPK2": {"target": "T27, SRPK2 (Homo sapiens, UniProt P78362)", "T27 construct": "purchased ProQinase", "conditions": "SRPK2, 1 µM; read-out: Residual Activity (%)", "method_in_brief": "as §1"}, "MKNK2": {"target": "T28, MKNK2 (Homo sapiens, UniProt Q9HBH9)", "T28 construct": "purchased ProQinase", "conditions": "MKNK2, 1 µM; read-out: Residual Activity (%)", "method_in_brief": "as §1"}, "TSSK1": {"target": "T29, TSSK1 (Homo sapiens, UniProt Q9BXA7)", "T29 construct": "purchased ProQinase", "conditions": "TSSK1, 1 µM; read-out: Residual Activity (%)", "method_in_brief": "as §1"}, "BRK": {"target": "T30, BRK (Homo sapiens, UniProt Q13882)", "T30 construct": "purchased ProQinase", "conditions": "read-out: Residual Activity (%)", "method_in_brief": "as §1"}, "MEK5": {"target": "T31, MEK5 (Homo sapiens, UniProt Q13163)", "T31 construct": "purchased ProQinase", "conditions": "MEK5, 1 µM; read-out: Residual Activity (%)", "method_in_brief": "as §1"}},
  "data": [
    {"smiles": "COc1ccc(-c2cc(C(=O)Nc3cc(-c4c(-c5ccc(F)cc5)noc4C(C)C)ccn3)n(CC3NCC(O)C3O)c2)cc1", "note": "(stereo not shown) [29d]", "values": [
      {"measurement": "remaining activity at 1 µM", "setting": "B-RAF", "result": 95, "unit": "%"},
      {"measurement": "remaining activity at 1 µM", "setting": "EPHA7", "result": 100, "unit": "%"},
      {"measurement": "remaining activity at 1 µM", "setting": "SIK3", "result": 104, "unit": "%"},
      {"measurement": "remaining activity at 1 µM", "setting": "PKC-epsilon", "result": 84, "unit": "%"},
      {"measurement": "remaining activity at 1 µM", "setting": "DAPK2", "result": 96, "unit": "%"},
      {"measurement": "remaining activity at 1 µM", "setting": "S6K", "result": 102, "unit": "%"},
      {"measurement": "remaining activity at 1 µM", "setting": "STK17A", "result": 102, "unit": "%"},
      {"measurement": "remaining activity at 1 µM", "setting": "TSK2", "result": 99, "unit": "%"},
      {"measurement": "remaining activity at 1 µM", "setting": "MUSK", "result": 97, "unit": "%"},
      {"measurement": "remaining activity at 1 µM", "setting": "FGR", "result": 107, "unit": "%"},
      {"measurement": "remaining activity at 1 µM", "setting": "RIPK2", "result": 108, "unit": "%"},
      {"measurement": "remaining activity at 1 µM", "setting": "EPHA5", "result": 103, "unit": "%"},
      {"measurement": "remaining activity at 1 µM", "setting": "IKK-epsilon", "result": 94, "unit": "%"},
      {"measurement": "remaining activity at 1 µM", "setting": "FES", "result": 120, "unit": "%"},
      {"measurement": "remaining activity at 1 µM", "setting": "FRK", "result": 94, "unit": "%"},
      {"measurement": "remaining activity at 1 µM", "setting": "BTK", "result": 112, "unit": "%"},
      {"measurement": "remaining activity at 1 µM", "setting": "GSK3-alpha", "result": 103, "unit": "%"},
      {"measurement": "remaining activity at 1 µM", "setting": "SIK1", "result": 92, "unit": "%"},
      {"measurement": "remaining activity at 1 µM", "setting": "ERK1", "result": 102, "unit": "%"},
      {"measurement": "remaining activity at 1 µM", "setting": "PLK1", "result": 98, "unit": "%"},
      {"measurement": "remaining activity at 1 µM", "setting": "MAPKAPK3", "result": 91, "unit": "%"},
      {"measurement": "remaining activity at 1 µM", "setting": "IKK-beta", "result": 92, "unit": "%"},
      {"measurement": "remaining activity at 1 µM", "setting": "PAK6", "result": 83, "unit": "%"},
      {"measurement": "remaining activity at 1 µM", "setting": "HCK", "result": 110, "unit": "%"},
      {"measurement": "remaining activity at 1 µM", "setting": "BRSK2", "result": 90, "unit": "%"},
      {"measurement": "remaining activity at 1 µM", "setting": "CK1-epsilon", "result": 4, "unit": "%"},
      {"measurement": "remaining activity at 1 µM", "setting": "SRPK2", "result": 107, "unit": "%"},
      {"measurement": "remaining activity at 1 µM", "setting": "MKNK2", "result": 92, "unit": "%"},
      {"measurement": "remaining activity at 1 µM", "setting": "TSSK1", "result": 109, "unit": "%"},
      {"measurement": "remaining activity at 1 µM", "setting": "BRK", "result": 131, "unit": "%"},
      {"measurement": "remaining activity at 1 µM", "setting": "MEK5", "result": 110, "unit": "%"}
    ]}
  ]
}
